This note sets out measurements from patent US6426343B1, “Preparation and use of a specific GABA-Aα5 receptor ligand for treatment of Alzheimer's disease” (Merck Sharp & Dohme Ltd., priority 1995, dated 2002).

The test system of data set [1] is rats. Description: Pro-convulsant testing, chronic treatment, PTZ infusion. Particulars: 0.1, 0.3, 1.0 mg/kg IP, 24 doses, final dose 48 h before testing. The format is in vivo, rat. Here is the method: The rats used in this study received chronic treatment with FG 8094 during a MWM experiment. The rats were dosed IP once per day (Monday to Friday) and received a total of 24 doses. Following each drug administration rats were tested in a MWM and received the final dose of drug 48 h prior to convulsant testing. The subjects were assigned to one of four treatment groups (n=8) and given either Vehicle, 0.1, 0.3, or 1.0 mg/kg of FG 8094.
On the day of proconvulsant testing, the rats were restrained and pentylenetetrazole (PTZ, 40.0 mg/ml) was infused as described above. The latency(s) to both clonic and tonic (full extension) convulsion was recorded. Latency data were transformed to yield the dose of PTZ needed to reach the threshold of both clonic and tonic seizures.

In data set [2] the target is T1, α2β3γ2 (Homo sapiens, UniProt P18507+P47869).
T1 construct: expressed in transfected cells
T1 sequence (P47869 29-451): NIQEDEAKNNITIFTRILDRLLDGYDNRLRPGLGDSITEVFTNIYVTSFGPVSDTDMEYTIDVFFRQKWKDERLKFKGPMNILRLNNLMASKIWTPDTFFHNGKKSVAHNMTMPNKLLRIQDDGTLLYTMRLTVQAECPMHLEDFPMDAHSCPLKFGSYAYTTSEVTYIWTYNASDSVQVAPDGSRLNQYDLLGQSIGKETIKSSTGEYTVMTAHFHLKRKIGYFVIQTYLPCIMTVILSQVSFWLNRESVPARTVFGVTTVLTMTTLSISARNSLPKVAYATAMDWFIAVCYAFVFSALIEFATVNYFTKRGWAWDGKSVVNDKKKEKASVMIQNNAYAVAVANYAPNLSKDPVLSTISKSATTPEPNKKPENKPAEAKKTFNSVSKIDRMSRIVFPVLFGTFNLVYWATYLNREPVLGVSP
T1 sequence (P28472 26-473 partner): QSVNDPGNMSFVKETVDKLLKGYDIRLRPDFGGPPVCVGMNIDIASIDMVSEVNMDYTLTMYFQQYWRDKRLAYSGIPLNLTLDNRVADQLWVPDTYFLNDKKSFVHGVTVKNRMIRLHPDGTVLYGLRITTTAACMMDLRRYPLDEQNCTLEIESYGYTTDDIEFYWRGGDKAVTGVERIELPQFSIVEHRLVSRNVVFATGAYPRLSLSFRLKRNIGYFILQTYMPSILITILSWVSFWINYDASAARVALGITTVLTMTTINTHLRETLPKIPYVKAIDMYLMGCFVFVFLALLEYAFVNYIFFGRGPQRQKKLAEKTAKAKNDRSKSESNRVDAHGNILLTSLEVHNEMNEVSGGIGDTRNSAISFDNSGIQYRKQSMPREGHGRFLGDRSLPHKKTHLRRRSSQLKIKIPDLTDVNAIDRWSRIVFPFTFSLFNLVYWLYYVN
T1 sequence (P18507 40-467 isoform P18507-1 limits assumed): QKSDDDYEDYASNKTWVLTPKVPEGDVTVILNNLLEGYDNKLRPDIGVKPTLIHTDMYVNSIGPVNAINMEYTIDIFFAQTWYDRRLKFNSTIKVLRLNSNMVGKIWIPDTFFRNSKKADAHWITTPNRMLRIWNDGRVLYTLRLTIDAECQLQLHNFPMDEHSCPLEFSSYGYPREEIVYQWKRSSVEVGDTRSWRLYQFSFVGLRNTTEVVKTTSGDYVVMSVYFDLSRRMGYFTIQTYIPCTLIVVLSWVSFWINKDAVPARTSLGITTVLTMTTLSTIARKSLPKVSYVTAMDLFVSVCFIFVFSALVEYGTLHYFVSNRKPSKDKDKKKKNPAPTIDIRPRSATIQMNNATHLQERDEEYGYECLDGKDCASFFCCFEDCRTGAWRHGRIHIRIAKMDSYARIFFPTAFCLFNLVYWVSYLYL
Briefly: Radioligand binding, membranes of stably transfected cells.

Data set [3] relates to Male PVG hooded rats. Description: Morris watermaze cognitive studies. The format is in vivo, rat. Here is the method: FG 8094 was synthesised by the Merck, Sharp and Dohme Neuroscience Research Centre's medicinal chemistry group and was suspended in 0.5% CMC. Vehicle or FG 8094 was administered IP 30 mins before the beginning of the first training trial.
Male PVG hooded rats (Bantin & Kingman, Hull U.K.), weighting approximately 300 g, were housed in groups of four with free access to food and water. The animals were maintained on a 12/12 h light-dark cycle, with the lights on at 07:00 h.
The Morris watermaze consists of a white, fibre-glass circular pool, of diameter 2 m, filled with an opaque mixture of water and white dye (E308, Morton International) maintained at 26-28° C. […] A hidden platform (13×13 cm) submerged 2 cm below the water surface was placed in the middle of the NE quadrant.
A closed-circuit video camera, fitted with a wide-angle lens, was mounted directly above the centre of the pool and connected to an image analyser which digitised the image. The digital information was relay to an Archimedes microcomputer running ‘Watermaze’ a software package supplied by Paul Fray LTD (Cambridge, UK). The software package provided the following measures: latency to reach the platform, length of path taken, average swimming speed, the time spent and the total distance travelled in the target quadrant.
The rats were assigned to four treatment groups (n=8): Vehicle, 0. 1, 0.3, 1.0 mg/kg FG 8094. During the acquisition phase of the experiment all the groups were given four trials per day. During this time the hidden platform was submerged in the NE quadrant of the watermaze. The rat was taken from the home cage and placed into the watermaze at one of four quasi-randomly determined locations (‘North’, ‘East’, ‘South’, or ‘West’) with its head facing, and almost touching, the pool wall. Trials began when the rat was released by the experimenter and ended when the rat climbed onto the platform and the mean escape latency was recorded. The maximum trial length was 60 s. If by that time the rat had not climbed on to the platform the trial ended automatically, the experimenter placed the rat on the platform and an escape latency of 60 s was recorded. The rat remained on the platform for 30 s and was then removed to a high-sided opaque plastic container for a further 30 s, (inter-trial interval, ITI). At the end of the ITI the rat was placed into the pool again, but at a different location and upon release the next trial began. This procedure was repeated until four trials had been completed.
Normally, the escape latency declines over several days of training from 60 s to around 20 s. A ‘probe trial’ assess the rat's spatial memory for the location of the hidden platform. During this trial the platform was removed from the watermaze and the rat was allowed to search the pool for 60 s before it was removed from the pool. If the treatment improves the rat's memory for the location of the platform, it will spend longer searching the quadrant in which the platform had previously been hidden (NE) than a rat given vehicle treatment.
Deficits in performance that might be due to drug-induced side-effects (such as blurred vision or motoric deficits resulting in an impaired ability to swim) were assessed using cued recall. In this procedure, the platform was also placed in the NE quadrant, but was raised 3 cm above the water level and thus visible to the rat. If the treatment has no effects on the mean escape latencies to the visible platform, then any group differences in mean escape latencies to an invisible platform can be attributed to an effect on cognitive process.
Six days following the probe trial, during which time the rats were not expose to the watermaze or administered FG 8094, the rats were again tested with the platform submerged in the NE quadrant using the acquisition protocol.
Reversal training was identical to the acquisition phase of the experiment with the exception that the platform was submerged in the middle of the SW quadrant.

In data set [4] the target is α1β3γ2 (Homo sapiens, UniProt P14867+P18507). Briefly: biochemical.
Chain of α1β3γ2 (P14867 28-456): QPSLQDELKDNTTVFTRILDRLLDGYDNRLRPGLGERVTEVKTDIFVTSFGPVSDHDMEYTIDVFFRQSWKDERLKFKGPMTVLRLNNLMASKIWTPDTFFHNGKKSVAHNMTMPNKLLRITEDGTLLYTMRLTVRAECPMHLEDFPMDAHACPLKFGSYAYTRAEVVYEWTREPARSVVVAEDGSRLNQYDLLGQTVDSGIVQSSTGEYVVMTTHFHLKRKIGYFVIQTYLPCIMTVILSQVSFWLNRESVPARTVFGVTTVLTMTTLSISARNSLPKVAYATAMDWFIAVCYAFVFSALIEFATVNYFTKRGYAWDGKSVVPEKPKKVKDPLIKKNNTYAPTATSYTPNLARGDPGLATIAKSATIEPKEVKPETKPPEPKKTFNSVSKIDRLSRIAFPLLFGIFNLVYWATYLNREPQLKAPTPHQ
Chain of α1β3γ2 (P28472 26-473 partner): as the sequence (P28472 26-473 partner) above
Chain of α1β3γ2 (P18507 40-467 isoform P18507-1 limits assumed): as the sequence (P18507 40-467 isoform P18507-1 limits assumed) above
Protocol: Radioligand binding studies were carried out using membranes prepared from cells stably transfected with the following subunit combinations:—α1β3γ2, α2β3γ2, α3β3γ2, α5β3γ2, α6β3γ2. Incubations were carried out using 20-100 mg of membrane protein in a total volume of 0.5 ml in 10 mM Tris-HCl, 1 mM EDTA pH 7.4 for one hour at room temperature prior to termination through Whatman GF/C filters followed by 3×3 ml washes with 5 mM Tris-HCl pH 7.5 and scintillation counting. […] Ki values were calculated according to the Cheng-Prussof equation.
Ki values were calculated according to the Cheng-Prussof equation. Data shown are mean±SEM values for 3-6 determinations.
Data set [5] concerns GABAA receptors. Briefly: In vivo [3H]Ro 15-1788 binding in whole mouse brain. Here is the method: The in vivo binding of [^3H]Ro 15-1788 to mouse brain was performed essentially as described by Goeders and Kuhar (1985). Male Swiss-Webster mice received a 0.9% NaCl solution containing 50 mCi/kg of [^3H]Ro 15-1788 (0.05 ml/10 g of body weight) via the tail vein. […] Each mouse brain was then rapidly removed, homogenised in 5.0 ml of 50 mM Tris HCl, 5.0 mM EDTA, pH 7.4 at 4° C. using an ultra-turrax homogeniser for 10 s at setting 5. In a separate series of experiments different brain regions, selected for their preferential expression of particular GABA subtypes were also examined. Binding of [^3H]Ro 15-1788 to cerebellum is almost exclusively α1-like (Quirk et al, 1994), whereas binding to spinal cord is indicative of binding to receptors containing α2 or α3-subtypes, α1, α4 and α5 are rare or absent in this region (Wisden et al, 1992). Brains were rapidly dissected into forebrain and cerebellum and the spinal cord was also removed. […] Volumes ([…]) of homogenate were filtered rapidly through GF/B filters, washed with 2×5.0 ml volumes of ice-cold buffer and the residual radioactivity was counted by liquid scintillation spectroscopy.

As a reminder, the Ki is a measure of affinity in units of concentration, obtained from inhibition or displacement. A low value points to a stronger hold on the target. For the molecule `CCOC(=O)c1ncn2c1[C@@H]1CCCN1C(=O)c1cc(OC)ccc1-2` [FG 8094, 9H-imidazo[1,5-a]pyrrolo[2,1-C][1,4]benzodiazepine-1-carboxylic acid, 11, 12, 13, 13a-tetrahydro-7-methoxy-9-oxo-, ethyl ester, (S)-(9CI)], the “threshold dose of PTZ to clonic or tonic seizure” value in data set [1] is listed as “no significant effect of treatment”. In data set [2], this molecule had a Ki of 27.4 ± 2.5 nM. Moreover, in data set [3] (0.1, 0.3, 1.0 mg/kg IP), the “cued recall, mean escape latency to the visible platform” value was “no significant effect of dose”; the “probe trial, time spent searching the platform quadrant” value was “no difference in the amount of time the control and drug groups spent searching the quadrant”. For the same molecule, the “cued recall, mean path length” value in data set [3] (0.1, 0.3, 1.0 mg/kg IP, post hoc Newman-Keuls) is given as “vehicle group traversed a significantly longer path than all the groups given FG 8094”. In addition, in data set [3] (0.3 and 1.0 mg/kg IP, nine day training), the “mean escape latencies, acquisition trials” value is “appear to be shorter than the vehicle control group or the 0.1 mg/kg group, the observation was not confirmed by Newman Keul post hoc tests”. The “mean swimming speed during escape to the hidden platform” value in data set [3] (acquisition trials, 0.1, 0.3, 1.0 mg/kg IP) is “no significant effect of dose”. Further, in data set [3] (platform moved to Southwest quadrant, first reversal day, p<0.05), the “reversal learning, mean escape latency” value was “mean escape latency of the vehicle group was significantly longer than all of the FG 8094 groups”. Besides, the “recall test, mean escape latency” value in data set [3] (six days after probe trial, 0.1, 0.3, 1.0 mg/kg, p<0.05) was “mean escape latency of the vehicle group was longer than any of the FG 8094 groups”. Also, the Ki in data set [4] worked out at 48.5 ± 6 nM. In addition, the “displacement of [3H]Ro 15-1788 binding, whole brain” value in data set [5] (10.0 mg/kg intraperitoneally, p<0.05) is “significantly displaced”. Moreover, in data set [5] (intraperitoneally at doses of up to 3.0 mg/kg), the “displacement of specific [3H]Ro 15-1788 binding, whole brain” value was “did not significantly displace”.
